From ChEMBL document CHEMBL3120149, “A multiple free-radical scavenging (MULTIS) study on the antioxidant capacity of a neuroprotective drug, edaravone as compared with uric acid, glutathione, and trolox” (Bioorg Med Chem Lett, 2014)

Assays:
Assay type in all cases: functional
[1] = Antioxidant activity assessed as DMSO/H2O2-induced methyl radical scavenging activity by ESR spin trapping method
[2] = Antioxidant activity assessed as H2O2-induced hydroxyl radical scavenging activity by ESR spin trapping method
[3] = Antioxidant activity assessed as hydroxyl radical scavenging activity
[4] = Antioxidant activity assessed as DMPO/H2O2-induced hydroxyl radical scavenging activity by fast-flow EPR technique
[5] = Antioxidant activity assessed as rosebengal-induced singlet oxygen radical scavenging activity by ESR spin trapping method
[6] = Antioxidant activity assessed as AAPH-induced alkoxyl radical scavenging activity by ESR spin trapping method
[7] = Antioxidant activity assessed as riboflavin/EDTA-induced superoxide anion radical scavenging activity by ESR spin trapping method
[8] = Antioxidant activity assessed as rosebengal-induced singlet oxygen radical scavenging activity by ESR spin trapping method relative to 4-OH-TEMP
[9] = Antioxidant activity assessed as DMSO/H2O2-induced methyl radical scavenging activity by ESR spin trapping method relative to DMPO
[10] = Antioxidant activity assessed as t-butylhyroperoxide-induced alkylperoxyl radical scavenging activity by ESR spin trapping method relative to CYPMPO
[11] = Antioxidant activity assessed as AAPH-induced alkoxyl radical scavenging activity by ESR spin trapping method relative to CYPMPO
[12] = Antioxidant activity assessed as riboflavin/EDTA-induced superoxide anion radical scavenging activity by ESR spin trapping method relative to CYPMPO
[13] = Antioxidant activity assessed as H2O2-induced hydroxyl radical scavenging activity by ESR spin trapping method relative to CYPMPO
[14] = Antioxidant activity assessed as t-butylhyroperoxide-induced alkylperoxyl radical scavenging activity by ESR spin trapping method

Row | SMILES | K [1] | K [2] | K [3] | K [4] | K [5] | K [6] | K [7] | Ratio [8] | Ratio [9] | Ratio [10] | Ratio [11] | Ratio [12] | Ratio [13] | K [14]
1 | CC1(C)CCC=[N+]1[O-] | 1.4 ×10⁷ /M/s | 2.8 ×10⁹ /M/s | – | – | – | – | – | – | – | – | – | – | – | –
2 | CC1=NN(c2ccccc2)C(=O)C1 | 30 ×10⁶ /M/s | 298 ×10⁹ /M/s | 1.4 ×10¹⁰ /M/s | 3 ×10¹⁰ /M/s | 27.5 ×10⁶ /M/s | 3.16 ×10⁶ /M/s | 2.93 ×10³ /M/s | 306 | 2.14 | 39 | 139 | 61.1 | 28.7 | –
3 | Cc1c(C)c2c(c(C)c1O)CCC(C)(C(=O)O)O2 (stereo not given) | 4.72 ×10⁶ /M/s | 24.8 ×10⁹ /M/s | – | – | 62.2 ×10⁶ /M/s | 4.83 ×10⁶ /M/s | 2.1 ×10³ /M/s | 692 | 0.337 | 0 | 214 | 43.8 | 23.8 | 0 M⁻¹ s⁻¹
4 | C[C@@H]1O[C@@H](OC[C@H]2O[C@@H](Oc3c(-c4ccc(O)c(O)c4)oc4cc(O)cc(O)c4c3=O)[C@H](O)[C@@H](O)[C@@H]2O)[C@H](O)[C@H](O)[C@H]1O | – | – | – | – | 3.5 ×10⁸ /M/s | 6.9 ×10⁶ /M/s | 1.5 ×10⁴ /M/s | – | – | – | – | – | – | –
5 | N[C@@H](CCC(=O)N[C@@H](CS)C(=O)NCC(=O)O)C(=O)O | 1.99 ×10⁶ /M/s | 16.5 ×10⁹ /M/s | – | – | 939 ×10⁶ /M/s | 2.73 ×10⁶ /M/s | 1.12 ×10³ /M/s | 10400 | 0.142 | 4.09 | 121 | 23.3 | 1.59 | –
6 | Oc1nc(O)c2nc(O)[nH]c2n1 | 0 M⁻¹ s⁻¹ | 9.3 ×10⁹ /M/s | – | – | 2.31 ×10⁶ /M/s | 9.9 ×10⁶ /M/s | 10.7 ×10³ /M/s | 25.7 | 0 | 0 | 436 | 222 | 0.894 | 0 M⁻¹ s⁻¹
7 | CC1(C)COP(=O)(C2(C)CCC=[N+]2[O-])OC1 (stereo not given) | – | – | – | – | – | 2.27 ×10⁴ /M/s | 48 M⁻¹ s⁻¹ | – | – | – | – | – | – | –
